{"source": "patent US8314068B2", "about": "“P2X7 inhibition of epithelial cancers and papillomas” (University Hospitals of Cleveland, priority 2009, dated 2012)", "key": {"mouse skin [1]": {"system": "mouse skin", "experiment": "Local BzATP on normal mouse dorsal skin, 16 weeks (safety, TUNEL, Ki67)", "type": "in vivo", "method": "BzATP was applied locally twice a week on the surface of the shaved dorsal skin for a total of 16 weeks. The control group included mice that had their back shaved and were treated only with the vehicle. […] See, FIGS. 14A & 14C versus FIGS. 14B & 14D, respectively.\nImage-analysis of immunofluorescence data was described (Li et al, 2007). Representative fields were captured and saved in Adobe Photoshop. Pictures were scanned using UN-SCAN-IT (Silk Scientific, Orem Utah) by choosing 3-5 representative fields for each picture. Light intensity in each field was digitized and average pixel density per field was determined using the program software.\n(§1) TUNEL assays in tissues cross sections were performed using DeadEnd™ Fluorometric TUNEL System (Promega, Madison, Wis.) according to the manufacturer's protocol. For TUNEL-P2X7 co-staining, tissue cross sections were first assayed for TUNEL, followed by P2X7 immunostaining.\n(§2) Experiments using mice were done according to an approved CWRU IACUC IRB protocol [2006-0141]. Experiments utilized 6-8 weeks old FVB female mice (obtained from Charles River, Wilmington, Mass.). The animal's dorsal skin (about 3×5 cm) was shaved using Oster animal clipper (Mountain Home, Ark.) followed by weekly application of Nair® hair remover lotion. Treatments included the application of one or more of the following drugs, directly onto the shaved dorsal skin: DMBA (50 μg/200 μl acetone [950 μM, 190 nmol, 3.3 μg/cm^2]); TPA (3 μg/200 μl acetone [20 μM, 4 nmol, 0.2 μg/cm^2]); BzATP (14.3 μg/200 μl of 2.3/1 vol/vol solution of propylene-glycol [PG]/ethanol [EtOH][100 μM, 20 nmol, 1.0 μg/cm^2]); or the BzATP vehicle only (200 μl of PG/EtOH). DMBA was applied once, while TPA and BzATP were applied twice a week. Skin neoplasia in the mice were induced by the “Two-Step” method, which involved tumor initiation by local treatment with 7,12-dimethylbenz(a)anthracene (DMBA), followed by tumor promotion with local treatment of 12-O-tetradecanoylphorbol-13-acetate (TPA). Guo et al., “Disruption of EphA2 receptor tyrosine kinase leads to increased susceptibility to carcinogenesis in mouse skin” Cancer Res 2006, 66:7050-7058. The concentration/dose of BzATP and frequency of treatments were chosen based on data in cultured cells (supra).\nFrom each animal blood samples were obtained from the retro-bulbar venous complex for ALT (SGPT) and AST (SGOT) assays. In addition, dorsal skin strips were obtained from each animal for microscopic H&E tissue evaluation, Ki67 immunostaining, and in-situ detection of DNA fragmentation by the TUNEL method.\nAssays used Liquid ALT and Liquid AST reagent sets (Cat # A7526-150a and A7561-150, respectively) obtained from Pointe Scientific (Canton Mich.), and were performed according to the supplier instructions."}, "mouse skin [2]": {"system": "mouse skin", "experiment": "Local BzATP on normal mouse dorsal skin, 4 weeks (tolerability, apoptosis)", "type": "in vivo", "method": "BzATP (100 μM in 200 μl [20 nmol, 14.3 μg, 1.0 μg/cm^2]), was applied twice weekly for 4 weeks on the posterior region of the shaved dorsal skin. The concentration/dose of BzATP and frequency of treatments were chosen based on the above discussed cell culture data. Each animal served as its own control by having vehicle-containing solution applied twice weekly for 4 weeks on the anterior region of the shaved dorsal skin.\nas §1, §2\nThe shaved dorsal skin was divided into two equal anterior and posterior areas. Each animal was treated with BzATP applied locally twice a week for […] on the anterior skin area; vehicle only was applied in parallel twice a week for 4 weeks on the posterior skin area. At the end of the experiment animals were euthanized by cervical dislocation and dorsal skin strips were obtained from each animal from the anterior and posterior skin areas for microscopic H&E tissue evaluation and P2X7 immunostaining."}, "[3]": {"system": "DMBA/TPA-induced skin papillomas", "experiment": "DMBA/TPA mouse skin papilloma model, 12 weeks (Experiment-3)", "type": "in vivo"}, "[4]": {"system": "human normal keratinocytes", "experiment": "Apoptosis in cultured human normal keratinocytes", "type": "cell-based", "settings": "BzATP 100 μM with ATP 1 μM or 250 μM", "text": "Primary cultures of human normal keratinocytes were generated from discarded foreskins. […] Apoptosis may be quantified in terms of percent solubilized DNA (Wang et al, 2004a), or by using the commercial cell-death detection ELISA kit (Roche Applied Science, Nutley, N.J.) (Feng et al, 2006)."}, "[5]": {"system": "mouse wild-type normal keratinocytes", "experiment": "DNA synthesis ([3H]-thymidine incorporation) in mouse wild-type normal keratinocytes", "type": "cell-based", "settings": "BzATP 100 μM 8 hours; oligonucleotides 100 μM 14 hours", "method": "FIG. 20 presents exemplary data showing the effects of pre-treatment with anti-sense P2X7 oligonucleotides (ASO) or random-control P2X7 oligonucleotides (RCO) (both at 100 μM for 14 hours), and of treatments with BzATP (100 μM, 8 hours) on [^3H]-thymidine incorporation in mouse wild-type normal keratinocytes (values are means±SD, n=4).\nChanges in DNA synthesis were determined in terms of [^3H]-thymidine incorporation as described Wang et al., “EGF facilitates epinephrine inhibition of P2X7-receptor mediated pore formation and apoptosis: a novel signaling network” Endocrinology 2005, 146:164-174. The radioactivity (dpm/mg Protein, determined by Bio-Rad Protein Assay solution [Hercules, Calif.]) of triplicated samples was determined by beta scintillation counting (Beckman LS1801 scintillation counter)."}, "[6]": {"system": "mouse wild-type normal keratinocytes", "experiment": "Apoptosis in cultured mouse wild-type keratinocytes", "type": "cell-based", "settings": "8 hours"}, "[7]": {"system": "DMBA/TPA-induced skin papillomas and squamous spindle-cell carcinomas", "experiment": "DMBA/TPA mouse skin papilloma and cancer model, 28 weeks (Experiment-4)", "type": "in vivo"}, "WT-MDCK cells": {"system": "WT-MDCK cells", "experiment": "Apoptosis in wild-type MDCK cells lacking P2X7", "type": "cell-based, canine", "settings": "100 μM, 8 hrs", "text": "Human epidermal squamous cell carcinoma-9 (SCC-9) cells and Madin Darby canine kidney cells (MDCK, strain II) were obtained from the ATCC. […] Apoptosis may be quantified in terms of percent solubilized DNA (Wang et al, 2004a), or by using the commercial cell-death detection ELISA kit (Roche Applied Science, Nutley, N.J.) (Feng et al, 2006). […] The sequences of the 20-mer ASO that would hybridize to the coding region of exon 7 (nt 724-741), and the RCO were as follows: […] In the RCO, the antisense sequence was randomly replaced with adenine and thymine residues so that the oligonucleotides had the same length (20-mer) and GC content (33%) as the ASO."}}, "note": "“Also recorded” adds a separate entry of the source.", "data": [{"compound": "Nc1ncnc2c1ncn2[C@@H]1O[C@H](COP(=O)(O)OP(=O)(O)OP(=O)(O)O)[C@@H](OC(=O)c2ccc(C(=O)c3ccccc3)cc2)[C@H]1O", "note": "[BzATP, 3′-O-(4-benzoylbenzoyl)adenosine triphosphate]", "values": [{"measurement": "Ki67 immunoreactivity versus control group", "setting": "mouse skin [1]; 16 weeks", "value": "no significant differences in Ki67 immunoreactivity"}, {"measurement": "histological evaluation of dorsal skin versus control group", "setting": "mouse skin [1]; 16 weeks", "value": "no differences"}, {"measurement": "mean serum levels of ALT (SGPT) and AST (SGOT)", "setting": "mouse skin [1]; 16 weeks", "value": "in the normal range for the mouse"}, {"measurement": "TUNEL pixel density, hair-shaft cross sections", "setting": "mouse skin [1]; 16 weeks, n=3", "value": "6.1±0.8"}, {"measurement": "TUNEL staining mean pixel density (±SD), epidermis", "setting": "mouse skin [1]; 16 weeks, n=3", "value": "5.2±0.3"}, {"measurement": "thinning or ulceration of the skin", "setting": "mouse skin [1]; 16 weeks, normal mice", "value": "did not produce a thinning or ulceration of the skin"}, {"measurement": "local or systemic adverse effects of local BzATP treatment", "setting": "mouse skin [1]; mice, applied locally on the skin", "value": "did not result in any local or systemic adverse events; also recorded: no adverse systemic effects; also recorded: no significant effect on the behavior of the animals, feeding habits, body weight, and liver functions; also recorded: did not produce local or systemic adverse effects"}, {"measurement": "behavior, feeding habits, body weights", "setting": "mouse skin [1]; twice a week, 16 weeks, local", "value": "no effects were observed"}, {"measurement": "gross appearance of the treated skin", "setting": "mouse skin [1]; twice a week, 16 weeks, local", "value": "no noticeable effect"}, {"measurement": "physical characteristics, behavior, feeding habits, weights", "setting": "mouse skin [2]; 1.0 μg/cm^2 twice weekly", "value": "no noticeable changes"}, {"measurement": "epidermal apoptosis (nuclear morphology, TUNEL)", "setting": "mouse skin [2]; twice weekly", "value": "augmented apoptosis of epidermal cells; also recorded: numerous epidermal basal/parabasal cells and epidermal hair shaft cells stained TUNEL positive"}, {"measurement": "histological H&E evaluation, treated versus control skin", "setting": "mouse skin [2]; twice weekly", "value": "no differences"}, {"measurement": "visible effect on the dorsal skin", "setting": "mouse skin [2]; twice weekly", "value": "no visible effect on the dorsal skin"}, {"measurement": "TUNEL staining of papilloma tissues", "setting": "[3]; biopsy at week 10, basal/parabasal regions", "value": "intense TUNEL staining"}, {"measurement": "decrease of mean number of papillomas per animal", "setting": "[3]; versus DMBA/TPA group", "value": "about 25%"}, {"measurement": "decrease of mean papilloma size", "setting": "[3]; versus DMBA/TPA group", "value": "about 45%"}, {"measurement": "animals having at least one papilloma", "setting": "[3]; week 6, DMBA/TPA+BzATP group", "value": 53.8, "unit": "%"}, {"measurement": "papillomas per animal (mean±SEM)", "setting": "[3]; week 10, DMBA/TPA+BzATP group", "value": "1.23±0.34"}, {"measurement": "animals with at least one skin papilloma", "setting": "[3]; week 12, DMBA/TPA+BzATP group", "value": 78, "unit": "%"}, {"measurement": "mean papilloma size per animal (mean±SEM)", "setting": "[3]; week 12, DMBA/TPA+BzATP group", "value": "3.46 ±0.73", "unit": "mm"}, {"measurement": "combined pro-apoptotic effect of BzATP with ATP", "setting": "[4]", "value": "non-additive"}, {"measurement": "effect on [3H]-thymidine incorporation", "setting": "[5]", "value": "no significant effect"}, {"measurement": "concentration of maximal apoptosis effect", "setting": "[6]", "value": "100 to 250", "unit": "µM"}, {"measurement": "lowest BzATP level at which apoptosis effects began", "setting": "[6]", "value": 50, "unit": "nM"}, {"measurement": "EC50", "setting": "[6]; Mus musculus, Keratinocyte, read-out: estimated EC50 of apoptosis augmentation", "value": "~10", "unit": "µM"}, {"measurement": "inhibition of papilloma and skin cancer formation", "setting": "[7]; 1 μg/cm^2 BzATP applied locally twice weekly", "value": 50, "unit": "%"}, {"measurement": "effect on P2X7 receptor expression in skin cancers", "setting": "[7]; immunoreactivity in cross sections", "value": "did not effect P2X7 receptor expression in cancer cells"}, {"measurement": "overall survival rates versus DMBA/TPA group", "setting": "[7]; log-rank test", "value": "did not differ statistically"}, {"measurement": "TUNEL staining in papillomas and cancer tissues versus DMBA/TPA group", "setting": "[7]; mouse, in vivo", "value": "more intense"}, {"measurement": "development of cancerous lesions (time-to-event) versus DMBA/TPA group", "setting": "[7]; mouse, in vivo", "value": "significantly slower and lower"}, {"measurement": "proportion of living animals with cancerous lesions >200 mm^3, difference to DMBA/TPA group", "setting": "[7]; mouse, in vivo", "value": "did not reach statistical significance"}, {"measurement": "proportion of living animals having a papilloma", "setting": "[7]; week 5, DMBA/TPA+BzATP group", "value": "48±12", "unit": "%"}, {"measurement": "papillomas per animal (mean±SD)", "setting": "[7]; week 10, DMBA/TPA+BzATP group", "value": "1.2±0.4"}, {"measurement": "mean total papillomas size per animal (mean±SD)", "setting": "[7]; week 12, DMBA/TPA+BzATP group", "value": "3.4±1.0", "unit": "mm^3"}, {"measurement": "proportion of animals with cancers", "setting": "[7]; week 14, mice co-treated with BzATP", "value": 50, "unit": "%"}, {"measurement": "proportion of living animals with cancerous lesions", "setting": "[7]; week 28, DMBA/TPA+BzATP group", "value": "43±9", "unit": "%"}, {"measurement": "proportion of living animals with cancerous lesions >10 mm^3", "setting": "[7]; week 28, DMBA/TPA+BzATP group", "value": "16±4", "unit": "%"}, {"measurement": "lowering of incidence of cancerous lesions", "setting": "[7]; week 28, co-treated with BzATP", "value": "about 50%"}, {"measurement": "lowering of incidence of papillomas", "setting": "[7]; weeks 0-12, co-treated with BzATP", "value": "about 50%"}, {"measurement": "effect on number of cancerous lesions per animal", "setting": "[7]; weeks 14-28", "value": "little effect"}, {"measurement": "BzATP-induced apoptosis", "setting": "WT-MDCK cells", "value": "did not induce apoptosis"}]}]}
